Experimental data published in US20060154984A1, “Therapeutic use of acyl glycerols and the nitrogen- and sulphur- containing analogues thereof” (priority 2003, published 2006).

Legend:
LDL = LDL oxidation by copper, conjugated diene formation (OD 234 nm); format: biochemical; conditions: 10^−4 M; for LDL oxidation rate (rate of conjugated diene formation): copper alone 3 nmol/min/mg of LDL; for increase in the lag phase: relative to copper alone; for decrease in the maximum amount of conjugated dienes formed: copper alone 496 nmol per mg of LDL
Experimental: Oxidation of LDL is an important modification which plays a major role in the onset and development of atherosclerosis (Jurgens, Hoff et al. 1987). […] Unless otherwise indicated, all reagents were from Sigma (St Quentin, France).
LDL were prepared as described by Lebeau et al. (Lebeau, Furman et al. 2000). The solutions of the test compounds were prepared at 10^−2 M in ethanol and diluted in PBS so that the final concentration ranged from 0.1 to 100 μM with a total ethanol concentration of 1% (VN).
Before oxidation, EDTA was removed from the LDL preparation by dialysis. The oxidation reaction was then carried out at 30° C. by adding 100 μl of 16.6 μM CuSO4 to 800 μl of LDL (125 μg protein/ml) and 100 μl of a test compound solution. The formation of dienes, the species to be followed, was measured by the optical density at 234 nm in the samples treated with the compounds in the presence or absence of copper. Optical density at 234 nm was measured every 10 minutes for 8 hours on a thermostated spectrophotometer (Kontron Uvikon 930). The analyses were carried out in triplicate. A compound was considered to have antioxidant activity when it shifted the lag phase latency relative to the control sample. […] FIG. 4 presents an example of the results obtained with the inventive compounds.

PPARα = biological target: T1, PPARα (Homo sapiens, UniProt Q07869); assay: Gal4/PPARα transactivation system in HepG2 cells (luciferase reporter); format: cell-based; conditions: HepG2 cells transfected with Gal4/PPARα plasmids, 24 h
T1 construct: expressed in transfected cells; host or cells: HepG2
T1 sequence (Q07869 239-466 limits assumed): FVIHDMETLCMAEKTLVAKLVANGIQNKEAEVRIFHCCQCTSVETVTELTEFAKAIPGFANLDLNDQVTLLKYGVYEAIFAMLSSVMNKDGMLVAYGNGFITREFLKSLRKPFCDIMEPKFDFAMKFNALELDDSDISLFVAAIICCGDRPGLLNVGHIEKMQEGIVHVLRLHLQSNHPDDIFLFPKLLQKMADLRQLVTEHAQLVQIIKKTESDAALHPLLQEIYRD
Experimental: PPAR activation was tested in vitro in RK13 fibroblast cell lines or in a hepatocyte line HepG2 by measuring the transcriptional activity of chimeras composed of the DNA binding domain of the yeast gal4 transcription factor and the ligand binding domain of the different PPARs. The example below is given for HepG2 cells.
HepG2 cells were from ECACC (Porton Down, UK) and were grown in DMEM medium supplemented with 10% (VN) fetal calf serum, 100 U/ml penicillin (Gibco, Paisley, UK) and 2 mM L-glutamine (Gibco, Paisley, UK). The culture medium was changed every two days. Cells were kept at 37° C. in a humidified 95% air/5% CO2 atmosphere.
The plasmids pG5TkpGL3, PRL-CMV, pGal4-hPPARα, pGal4-hPPARγ and pGal4-f have been described by Raspe et al. (Raspe, Madsen et al. 1999). The pGal4-mPPARα and pGal4-hPPARβ constructs were obtained by cloning PCR-amplified DNA fragments corresponding to the DEF domains of the mouse PPARα and […] nuclear receptors, respectively, into the pGal4-f vector.
HepG2 cells were seeded in 24-well culture dishes at 5×10^4 cells/well and transfected for 2 hours with the reporter plasmid pG5TkpGL3 (50 ng/well), the expression vectors pGal4-f, pGal4-mPPARα, pGal4-hPPARα, pGal4-hPPARγ, or pGal4-hPPARβ (100 ng/well) and the transfection efficiency control vector pRL-CMV (1 ng/well) according to the previously described protocol (Raspe, Madsen et al. 1999), then incubated for 36 hours with the test compounds. At the end of the experiment, the cells were lysed (Gibco, Paisley, UK) and luciferase activity was determined with a Dual-Luciferase™ Reporter Assay System kit (Promega, Madison, Wis., USA) according to the supplier's instructions. The protein content of the cell extracts was then measured with the Bio-Rad Protein Assay kit (Bio-Rad, Munich, Germany) as directed by the supplier. […] FIG. 3 gives an example of the results obtained with the inventive compounds.
FIG. 3: HepG2 cells transfected with Gal4/PPARα plasmids were incubated with different concentrations (5, 15, 50 and 100 μM) of the inventive comopunds (Ex 2a, Ex 4a, Ex 4p, Ex 5a, Ex 7 and Ex 11) for 24 h and with different concentrations of the vehicle (PC) noted 1, 2, 3, 4 as controls for the 5, 15, 50 and 100 μM concentrations of the inventive compounds (according to the 4:1 (m/m) ratio described in example 2 (Method of preparation of the inventive compounds for in vitro studies)). The results are expressed as the induction factor (luminescent signal of treated cells divided by luminescent signal of untreated cells) after the different treatments. […] The induction factors for inventive compound Ex 4p were 35 at 100 μM, 44 at 50 μM, 36 at 15 μM and 24 at 5 μM. The induction factors for compound Ex 5a were 32 at 100 μM, 34 at 50 μM, 15 at 15 μM and 4 at 5 μM. Finally, inventive compound Ex 7 induced a 19-fold induction at 100 μM, 19 at 50 μM, 7 at 15 μM and 1.5 at 5 μM. In contrast, when the cells were incubated with the vehicle (PC liposome), no significant induction was observed.

Row | melting point | induction factor (luminescent signal of treated cells divided by luminescent signal of untreated cells) (PPARα; 5 μM) [fold] | induction factor (luminescent signal of treated cells divided by luminescent signal of untreated cells) (PPARα; 15 μM) [fold] | induction factor (luminescent signal of treated cells divided by luminescent signal of untreated cells) (PPARα; 50 μM) [fold] | induction factor (luminescent signal of treated cells divided by luminescent signal of untreated cells) (PPARα; 100 μM) [fold] | Molecule | LDL oxidation rate (rate of conjugated diene formation) (LDL) | increase in the lag phase (LDL) [%] | decrease in the maximum amount of conjugated dienes formed (LDL) [%] | lag phase for conjugated diene formation (LDL; copper alone 104 minutes) [min]
1 | 224 °C (dec.) | – | – | – | – | CCCCCCCCCCCCCCCC(=S)OC(CN)CN.Cl.Cl | – | – | – | –
2 | – | – | – | – | – | 1,2-(dipalmitoyloxy)-3-tetradecylthioacetylaminopropane [Ex 9] | did not significantly alter | 33 | – | –
3 | – | 17 | 31 | 41 | 62 | CCCCCCCCCCCCCCSCC(=O)OCC(O)CO (stereo not drawn) [Ex 2a, 1-tetradecylthioacetylglycerol] | did not significantly alter | 67 | – | –
4 | – | – | – | – | – | CCCCCCCCCCCCCCCC(=O)OCC(COC(=O)CCCCCCCCCCCCCCC)OC(=O)CSCCCCCCCCCCCCCC [Ex 4g, 1,3-dipalmitoyl-2-tetradecylthioacetylglycerol] | 1.8 nmol/min/mg of LDL | 170 | 31 | 282
5 | – | – | – | – | – | CCCCC/C=C\C/C=C\CCCCCCCC(=O)OCC(COC(=O)CCCCCCC/C=C\C/C=C\CCCCC)OC(=O)CSCCCCCCCCCCCCCC [Ex 4h, 1,3-dilinoleoyl-2-tetradecylthioacetylglycerol] | 2.5 nmol/min/mg of LDL | 43 | 24 | –
6 | – | – | – | – | – | CCCCCCCCCCCCCCCC(=O)OC(COC(=O)CSCCCCCCCCCCCCCC)COC(=O)CSCCCCCCCCCCCCCC [Ex 4o, 1.3-ditetradecylthioacetyl-2-palmitoyl-glycerol] | did not significantly alter | 37 | – | –
7 | – | 24 | 36 | 44 | 35 | CCCCCCCCCCCCCCSCC(=O)OC(COC(C)=O)COC(C)=O [Ex 4p, 1,3-diacetyl-2-tetradecylthioacetylglycerol] | – | – | – | –
8 | – | 4 | 15 | 34 | 32 | CCCCCCCCCCCCCCSCC(=O)NC(CO)CO [Ex 5a, 2-tetradecylthioacetamidopropane-1.3-diol] | – | – | – | –
9 | – | 1.5 | 7 | 19 | 19 | CCCCCCCCCCCCCCSCC(=O)NCC(O)CO (stereo not drawn) [Ex 7, 3-(tetradecylthioacetylamino)propane-1,2-diol] | – | – | – | –
